{
  "source": "patent US4129648A",
  "about": "“Method for reducing endogenous prostaglandin synthesis” (priority 1977, dated 1978)",
  "key": {"[1]": {"tested_on": "bronchoconstriction induced by sodium arachidonate", "test": "Dynamic compliance and airway resistance in the anaesthetized guinea pig challenged with sodium arachidonate", "assay_type": "in vivo", "description": "(§1) The ability of Cohn subfraction IV4 and haptoglobin to reduce the transient hypertension caused by administration of sodium arachidonate in the guinea pig was also measured. These tests were carried out as follows.\n(§2) Male albino guinea pigs weighing 400-600 g each (Dunkin Hartley strain) were anesthetized by administration of sodium pentobarbitone, 60 mg/kg intraperitoneally. The trachea was cannulated for artificial ventilation by a Starling pump (5-8 ml at 72 strokes per minute) via a Fleisch 0000 pneumatachograph. The difference in pressure across this device was measured with a Grass differential pressure transducer. […] Transpulmonary pressure (TPP) was measured with another differential pressure transducer via side arms to the thoracic cavity and the tracheal cannula. The signals for low and TPP were applied to the analogue computer so that there was approximately 180° phase difference. The computer derived the dynamic compliance and resistance from the in-going signals. Drugs were administered intravenously via the external jugular vein. A 1 mg/ml solution of sodium arachidonate was prepared as follows. […] These doses were given at 30 minute intervals to produce a large but submaximal bronchoconstriction. After 2 or 3 similar responses to the same dose of sodium arachidonate had been obtained, the test substance in saline (0.1 to 1 ml) was injected intravenously. At various times thereafter, a challenge was given."}, "[2]": {"tested_on": "transient hypertension induced by sodium arachidonate", "test": "Mean arterial blood pressure in the anaesthetized guinea pig challenged with sodium arachidonate", "assay_type": "in vivo", "details": "dose 15 mg/kg intravenously", "description": "as §1, §2\nThe left carotid artery was cannulated for recording blood pressure with a Grass pressure transducer (Consolidated Dynamics 0.75 cm Hg type 4L221) linked to a Devices twin channel polygraph via a CD2D pre-amplifier. Electrocardiograms were recorded using a DC6 pre-amplifier linked to the Devices polygraph."}, "[3]": {"details": "dose 0.04 mg/kg intravenously, challenge 30 min after treatment"}, "[4]": {"details": "dose 0.20 mg/kg intravenously, challenge 30 min after treatment"}, "[5]": {"details": "dose 0.50 mg/kg intravenously, challenge 30 min after treatment"}, "[6]": {"details": "dose 0.50 mg/kg intravenously, challenge 60 min after treatment"}, "[7]": {"details": "dose 2 mg/kg intravenously, challenge 45 sec after treatment"}, "[8]": {"details": "dose 2 mg/kg intravenously, challenge 30 min after treatment"}, "[9]": {"details": "dose 15 mg/kg intravenously, challenge 45 sec after treatment"}, "[10]": {"details": "dose 15 mg/kg intravenously, challenge 10 min after treatment"}, "[11]": {"details": "dose 15 mg/kg intravenously, challenge 30 min after treatment"}, "[12]": {"details": "dose 15 mg/kg intravenously, challenge 60 min after treatment"}, "[13]": {"details": "dose 15 mg/kg intravenously, challenge 90 min after treatment"}, "[14]": {"details": "dose 15 mg/kg intravenously, challenge 120 min after treatment"}},
  "note": "Where a name gives a salt, the structure may show the parent alone.",
  "data": [
    {"smiles": "C[C@]12CCC(=O)C=C1CC[C@@H]1[C@@H]2[C@@H](O)C[C@]2(C=O)[C@@H](C(=O)CO)CC[C@@H]12", "note": "[Aldosterone, aldosterone]", "values": [
      {"measurement": "Mean % Inhibition (± s.e.) of educed dynamic lung compliance", "setting": "[1]; [3]", "value": 0, "unit": "%"},
      {"measurement": "Mean % Inhibition (± s.e.) of increased airway resistance", "setting": "[1]; [3]", "value": 9.0, "unit": "%"},
      {"measurement": "Mean % Inhibition (± s.e.) of educed dynamic lung compliance", "setting": "[1]; [4]", "value": 1.0, "unit": "%"},
      {"measurement": "Mean % Inhibition (± s.e.) of increased airway resistance", "setting": "[1]; [4]", "value": 14.0, "unit": "%"},
      {"measurement": "Mean % Inhibition (± s.e.) of educed dynamic lung compliance", "setting": "[1]; [5]", "value": "10.5 ± 6.5", "unit": "%"},
      {"measurement": "Mean % Inhibition (± s.e.) of increased airway resistance", "setting": "[1]; [5]", "value": 0, "unit": "%"},
      {"measurement": "Mean % Inhibition (± s.e.) of educed dynamic lung compliance", "setting": "[1]; [6]", "value": "5.0 ± 5.0", "unit": "%"},
      {"measurement": "Mean % Inhibition (± s.e.) of increased airway resistance", "setting": "[1]; [6]", "value": "6.5 ± 6.5", "unit": "%"}
    ]},
    {"smiles": "CC(=O)Oc1ccccc1C(=O)O", "note": "[Aspirin, aspirin calcium salt]", "values": [
      {"measurement": "Mean % Inhibition (± s.e.) of educed dynamic lung compliance", "setting": "[1]; [7]", "value": "71.5 ± 6.5", "unit": "%"},
      {"measurement": "Mean % Inhibition (± s.e.) of increased airway resistance", "setting": "[1]; [7]", "value": "85.5 ± 3.5", "unit": "%"},
      {"measurement": "Mean % Inhibition (± s.e.) of educed dynamic lung compliance", "setting": "[1]; [8]", "value": "81.5 ± 7.5", "unit": "%"},
      {"measurement": "Mean % Inhibition (± s.e.) of increased airway resistance", "setting": "[1]; [8]", "value": "91.0 ± 9.0", "unit": "%"}
    ]},
    {"smiles": "C[C@]12CCC(=O)C=C1CC[C@@H]1[C@@H]2[C@@H](O)C[C@@]2(C)[C@H]1CC[C@]2(O)C(=O)COC(=O)CCC(=O)O", "note": "[Hydrocortisone, hydrocortisone sodium succinate]", "values": [
      {"measurement": "Mean % Inhibition (± s.e.) of educed dynamic lung compliance", "setting": "[1]; [9]", "value": "15.0 ± 7.5", "unit": "%"},
      {"measurement": "Mean % Inhibition (± s.e.) of increased airway resistance", "setting": "[1]; [9]", "value": "24.0 ± 1.5", "unit": "%"},
      {"measurement": "Mean % Inhibition (± s.e.) of educed dynamic lung compliance", "setting": "[1]; [10]", "value": "21.3 ± 4.2", "unit": "%"},
      {"measurement": "Mean % Inhibition (± s.e.) of increased airway resistance", "setting": "[1]; [10]", "value": "24.3 ± 6.8", "unit": "%"},
      {"measurement": "Mean % Inhibition (± s.e.) of educed dynamic lung compliance", "setting": "[1]; [11]", "value": "49.0 ± 9.7", "unit": "%"},
      {"measurement": "Mean % Inhibition (± s.e.) of increased airway resistance", "setting": "[1]; [11]", "value": "46.2 ± 5.7", "unit": "%"},
      {"measurement": "Mean % Inhibition (± s.e.) of educed dynamic lung compliance", "setting": "[1]; [12]", "value": "44.0 ± 6.0", "unit": "%"},
      {"measurement": "Mean % Inhibition (± s.e.) of increased airway resistance", "setting": "[1]; [12]", "value": "61.0 ± 3.0", "unit": "%"},
      {"measurement": "Mean % Inhibition (± s.e.) of educed dynamic lung compliance", "setting": "[1]; [13]", "value": 25.0, "unit": "%"},
      {"measurement": "Mean % Inhibition (± s.e.) of increased airway resistance", "setting": "[1]; [13]", "value": 54.0, "unit": "%"},
      {"measurement": "Mean % Inhibition (± s.e.) of educed dynamic lung compliance", "setting": "[1]; [14]", "value": 12.0, "unit": "%"},
      {"measurement": "Mean % Inhibition (± s.e.) of increased airway resistance", "setting": "[1]; [14]", "value": 17.0, "unit": "%"},
      {"measurement": "Mean % Inhibition (± s.e.) of hypertension", "setting": "[2]; challenge 45 sec after treatment", "value": "35.0 ± 2.0", "unit": "%"},
      {"measurement": "Mean % Inhibition (± s.e.) of hypertension", "setting": "[2]; challenge 10 min after treatment", "value": "48.0 ± 18.0", "unit": "%"},
      {"measurement": "Mean % Inhibition (± s.e.) of hypertension", "setting": "[2]; challenge 30 min after treatment", "value": "25.0 ± 25.0", "unit": "%"},
      {"measurement": "Mean % Inhibition (± s.e.) of hypertension", "setting": "[2]; challenge 60 min after treatment", "value": 25.0, "unit": "%"}
    ]}
  ]
}
